Assay results as given in PMC5609566, “Elucidation of antimicrobial activity and mechanism of action by N-substituted carbazole derivatives” (Bioorganic & Medicinal Chemistry Letters, 2017).
In brackets after ≈: the same amount, converted by molar mass. Like-named read-outs stand apart in the source and are kept apart here.

Assays:
Mammalian Ca^2+-ATPase = target: T1, Mammalian Ca^2+-ATPase (Oryctolagus cuniculus, UniProt P04191); assay: Colorimetric ATPase assay, rabbit sarcoplasmic reticulum membranes (SERCA); format: biochemical
T1 construct: from tissue; host or cells: rabbit hind leg muscle, sarcoplasmic reticulum membranes (gift, Aarhus University)
Description: (§1) To investigate the H^+-ATPase inhibitory effect of the compounds we isolated plasma membranes containing H^+-ATPase from S. cerevisiae and C. albicans cells.[15] Plasma membranes isolated from pig kidney as well as endoplasmic reticulum membranes from rabbit hind leg muscle were used to counter-screen compounds for activity against mammalian Na^+,K^+-ATPase and Ca^2+-ATPase, respectively. Prior to their use, fungal plasma membrane batches were validated by determining the maximum ATP hydrolysis activity, the pH optimum of the ATPase activity, and the sensitivity to inhibition by orthovanadate. ATPase activity was determined by a colorimetric assay that measures the amount of inorganic phosphate liberated over time, as described in Kjellerup et al., 2017.[15] Table 2, Table 3, Table 4 list the IC50 values obtained by measuring the concentration dependence of the ATPase activity for the fifteen carbazole compounds with each of the four membrane preparations.
(§2) Pma1-containing plasma membranes were prepared from S. cerevisiae RS72 yeast cells that had been transformed with the full-length cDNA of the S. cerevisiae plasma membrane H^+-ATPase isoform PMA1 under control of the PMA1 promoter, using the same procedure as described in Kongstad et al., 2014^1. For the preparation of C. albicans membranes, a 100 ml overnight culture grown in YPD (10 g/L yeast extract (BD, Sparks, MD), 20 g/L Bacto peptone (BD), 20 g/L D-(+)-glucose) was transferred to 1 L YPD and grown for a further 7 h at RT with agitation (150 rpm), followed by cell harvesting and subsequent membrane preparation using the same procedure as described in Kongstad et al., 2014^1. […] Rabbit sarcoplasmic reticulum membranes containing Sarco/Endoplasmic Reticulum Ca^2+ ATPase (SERCA) were kindly provided by Dr. Claus E. Olesen and Dr. Jesper V. Møller, Aarhus University and prepared as described in Andersen et al., 1985^2. Pig kidney Na^+,K^+-ATPase was kindly provided by Dr. Natalya Fedosova, Aarhus University and prepared as described in Klodos et al., 2002^3.
(§3) The compound libraries were purchased from Enamine Ltd, Ukraine and Chembridge Corp, USA. ATPase activity was determined by measuring the amount of liberated phosphate from ATP hydrolysis. […] Reactions were initiated by the addition of Na-ATP to a final concentration of 2.5 mM (Pma1 and Na^+,K^+-ATPase) or 5 mM (SERCA), followed by 30 minutes incubation at 30 °C. The amount of liberated phosphate was determined colorimetrically after addition of STOP solution (mixture of L-ascorbic acid, ammonium heptamolybdate tetrahydrate, and HCl to give final concentrations of 65 mM, 2.2 mM, and 189 mM, respectively) with 5 minutes incubation at room temperature (RT) followed by addition of arsenite solution (mixture of NaAsO2, sodium citrate dihydrate, and acetic acid to give final concentrations of 3.1 mM, 28 mM, and 141 mM, respectively). Absorption was measured at 860 nm after an additional 30 minutes incubation at RT.

[1] = target: T2, Mammalian Na^+,K^+-ATPase (Sus scrofa, UniProt P05024); assay: Colorimetric ATPase assay, pig kidney membranes; format: biochemical; conditions: for IC50: pH 7, n = 3, read-out: ATP hydrolysis IC50 Mammalian Na^+,K^+-ATPase
T2 construct: from tissue; host or cells: pig kidney plasma membranes (gift, Aarhus University; prepared per Klodos et al., 2002)
Description: as §1, §2, §3

Candida albicans SC5314 = assay: Fungal growth inhibition MIC (MFC); format: cell-based; conditions: for MIC: Candida albicans SC5314, RPMI-1640; for MFC: Candida albicans SC5314, value in brackets
Description: (§4) We subsequently assessed the carbazole series for antifungal activity, as described in Kjellerup et al., 2017.[15] Table 2, Table 3, Table 4, Table 5 list the minimum inhibitory concentrations (MIC) and the minimum fungicidal concentrations (MFC) of the fifteen compounds tested against the yeasts Saccharomyces cerevisiae, Candida albicans, C. krusei, and two isolates of C. glabrata (a wild-type strain ATCC 90030 and a clinical azole-resistant isolate Cg003 with increased efflux pump expression[19]), and the molds Aspergillus fumigatus and A. flavus. MIC was defined as the lowest concentration inhibiting visual growth of the microorganism in RPMI-1640 media. […] However, in several cases antifungal activity against molds was minimal, Table 5.
(§5) Compound hits from the library screening were evaluated against baker yeast S. cerevisiae and C. albicans (ATCC 90028). The minimum inhibitory concentration (MIC) was defined as the lowest concentration inhibiting visual growth of the microorganism and this was determined in triplicate. Standard errors were typically less than 5%. MICs for synthesized compounds were determined on the following fungal isolates: Saccharomyces cerevisiae (ATCC 9763), Candida albicans (SC5314), Candida krusei (ATCC 6258), Candida glabrata (ATCC 90030), Aspergillus flavus (ATCC MYA-1005) and Aspergillus fumigatus (ATCC 13073), which were purchased from American Type Culture Collection, and C. glabrata strain Cg003, which was kindly provided by Julius Subik, Comenius University in Bratislava, Slovak Republic. Cg003 is a clinical isolate, characterized to be resistant to fluconazole and itraconazole due to overexpression of the multidrug resistance efflux pumps Cdr1p and Cdr2p^5. The fungal growth assay was performed as described in Kjellerup et al., 2017^6.

[2] = tested on: Candida glabrata ATCC 90030; assay: Fungal growth inhibition MIC (MFC); format: cell-based; conditions: Nakaseomyces glabratus, ATCC90030, Candida glabrata ATCC 90030 (wild-type); for MIC: RPMI-1640; for MFC: value in brackets
Description: as §4, §5

Candida glabrata Cg003 = assay: Fungal growth inhibition MIC (MFC); format: cell-based; conditions: Nakaseomyces glabratus, Candida glabrata Cg003 (clinical azole-resistant isolate); for MIC: RPMI-1640; for MFC: value in brackets
Description: as §4, §5

Candida krusei ATCC 6258 = assay: Fungal growth inhibition MIC (MFC); format: cell-based; conditions: Pichia kudriavzevii, ATCC6258; for MIC: Candida krusei ATCC 6258, RPMI-1640; for MFC: Candida krusei ATCC 6258, value in brackets
Description: as §4, §5

[3] = pH 7, n = 3, read-out: ATP hydrolysis IC50 Mammalian Ca^2+-ATPase

T1 sequence (P04191 1-994 isoform P04191-2): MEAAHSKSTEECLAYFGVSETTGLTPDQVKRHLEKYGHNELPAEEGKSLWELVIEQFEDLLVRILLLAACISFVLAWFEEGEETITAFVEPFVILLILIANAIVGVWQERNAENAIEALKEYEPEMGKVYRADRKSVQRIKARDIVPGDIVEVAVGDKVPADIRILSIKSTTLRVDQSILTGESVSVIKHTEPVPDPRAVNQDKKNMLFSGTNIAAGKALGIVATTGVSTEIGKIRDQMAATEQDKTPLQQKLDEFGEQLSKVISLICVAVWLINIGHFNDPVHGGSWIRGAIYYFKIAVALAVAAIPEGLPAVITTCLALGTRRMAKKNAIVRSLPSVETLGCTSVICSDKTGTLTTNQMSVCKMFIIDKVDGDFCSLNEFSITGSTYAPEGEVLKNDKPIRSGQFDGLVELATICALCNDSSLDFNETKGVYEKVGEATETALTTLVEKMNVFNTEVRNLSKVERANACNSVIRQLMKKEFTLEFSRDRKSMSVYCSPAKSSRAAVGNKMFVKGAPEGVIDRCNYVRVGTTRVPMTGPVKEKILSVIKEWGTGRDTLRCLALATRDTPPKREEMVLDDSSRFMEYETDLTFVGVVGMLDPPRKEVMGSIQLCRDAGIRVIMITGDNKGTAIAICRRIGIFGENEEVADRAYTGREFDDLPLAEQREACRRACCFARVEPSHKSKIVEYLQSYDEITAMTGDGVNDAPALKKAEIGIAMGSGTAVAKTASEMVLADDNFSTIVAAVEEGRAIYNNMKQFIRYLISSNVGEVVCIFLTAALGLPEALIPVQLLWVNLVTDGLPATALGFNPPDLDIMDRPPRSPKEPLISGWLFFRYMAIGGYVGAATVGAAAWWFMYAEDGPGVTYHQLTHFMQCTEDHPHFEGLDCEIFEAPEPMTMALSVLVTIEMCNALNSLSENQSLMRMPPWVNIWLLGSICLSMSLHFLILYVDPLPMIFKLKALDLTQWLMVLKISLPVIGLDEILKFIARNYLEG

SMILES | IC50 (Mammalian Ca^2+-ATPase) | IC50 [1] | MIC (Candida albicans SC5314) | MFC (Candida albicans SC5314) | MIC [2] | MFC [2] | MIC (Candida glabrata Cg003) | MFC (Candida glabrata Cg003) | MIC (Candida krusei ATCC 6258) | MFC (Candida krusei ATCC 6258) | IC50 (Mammalian Ca^2+-ATPase; [3]) | selectivity among the four ATPases ([1]; lower IC50 value on Na^+,K^+-ATPase)
OC(Cn1ccnc1)Cn1c2ccc(Cl)cc2c2cc(Cl)ccc21 (stereo not shown) [Compound 5, 1-(3,6-dichloro-9H-carbazol-9-yl)-3-(1H-imidazol-1-yl)propan-2-ol] | 10.7 ± 2.2 µM | 20.4 ± 2.3 µM | 24 µM (≈ 8.65 µg/mL) | > 75 µM | > 75 µM | > 75 µM | > 75 µM | > 75 µM | > 75 µM | > 75 µM |  | 
OC(Cn1cncn1)Cn1c2ccc(Cl)cc2c2cc(Cl)ccc21 (stereo not shown) [Compound 6, 1-(3,6-dichloro-9H-carbazol-9-yl)-3-(1H-1,2,4-triazol-1-yl)propan-2-ol] | 20.3 ± 3.6 µM | 5.2 ± 0.3 µM | 75 µM (≈ 27.1 µg/mL) | > 75 µM | > 75 µM | > 75 µM | > 75 µM | > 75 µM | > 75 µM | > 75 µM |  | 
OC(CN1CCOCC1)Cn1c2ccc(Cl)cc2c2cc(Cl)ccc21 (stereo not shown) [Compound 7, 1-(3,6-dichloro-9H-carbazol-9-yl)-3-morpholinopropan-2-ol] |  | 6 ± 1.3 µM | 75 µM (≈ 28.4 µg/mL) | 75 µM (≈ 28.4 µg/mL) | > 75 µM | > 75 µM | > 75 µM | > 75 µM | > 75 µM | > 75 µM | 19.6 ± 7.2 µM | 
CN1CCN(CC(O)Cn2c3ccc(Cl)cc3c3cc(Cl)ccc32)CC1 (stereo not shown) [Compound 8, 1-(3,6-dichloro-9H-carbazol-9-yl)-3-(4-methylpiperazin-1-yl)propan-2-ol] | 36.8 ± 12.2 µM | 9.7 ± 3.3 µM | 68 µM (≈ 26.7 µg/mL) | 75 µM (≈ 29.4 µg/mL) | 42 µM (≈ 16.5 µg/mL) | 75 µM (≈ 29.4 µg/mL) | 58 µM (≈ 22.8 µg/mL) | 75 µM (≈ 29.4 µg/mL) | 75 µM (≈ 29.4 µg/mL) | > 75 µM |  | 
O=C(O)C1CCN(CC(O)Cn2c3ccc(Cl)cc3c3cc(Cl)ccc32)CC1 (stereo not shown) [Compound 9, 1-(3-(3,6-dichloro-9H-carbazol-9-yl)-2-hydroxypropyl)piperidine-4-carboxylic acid] | 97.6 ± 25.7 µM | 4 ± 0.7 µM | > 75 µM | > 75 µM | > 75 µM | > 75 µM | > 75 µM | > 75 µM | > 75 µM | > 75 µM |  | pronounced selectivity towards Na^+,K^+-ATPase
CCC(C)NCC(O)Cn1c2ccc(Cl)cc2c2cc(Cl)ccc21 (stereo not shown) [Compound 10, 1-(sec-butylamino)-3-(3,6-dichloro-9H-carbazol-9-yl)propan-2-ol] |  | 1 ± 0.2 µM | 3.7 µM (≈ 1.35 µg/mL) | 3.8 µM (≈ 1.39 µg/mL) | 1.2 µM (≈ 0.438 µg/mL) | 3.8 µM (≈ 1.39 µg/mL) | 5.6 µM (≈ 2.05 µg/mL) | 7.9 µM (≈ 2.89 µg/mL) | 2.9 µM (≈ 1.06 µg/mL) | 3.8 µM (≈ 1.39 µg/mL) | 0.3 ± 0.1 µM | 
